# pIC50: −log10 of the molar value. Entries after “also recorded” stand apart in the source; their conditions may differ. Where two headings read alike, the source gives them in different places.
# Columns and labels:
# [1] = test system: Cytoplasmic Calcium Ion (Ca^++) Mobilization in platelets; test: Cytoplasmic calcium ion mobilization in platelets (Indo-1, flow cytometer); type: cell-based, human; settings: unstimulated peak 133
# Procedure: (§1) Unless otherwise provided below, the experimental procedures were performed according to the procedures provided in U.S. Pat. No. 5,049.550 (Zamecnik '550), the entire contents of which are incorporated herein by reference. Some alternative procedures (e.g., release reaction, PF3 assays) and a number of additional studies also are provided (e.g., cytoplasmic calcium mobilization, fibrinogen binding site, agonists other than ADP, platelet cAMP and distribution of CHCl-AP4 A into blood components). Blood was collected in a 0.1 volume of 3.8% sodium citrate from healthy human volunteers who had abstained from antiplatelet agents for at least 10 days. Platelet rich plasma (PRP) was separated by a gradual centrifugation and adjusted to 3.3×10^8 platelets per ml plasma. PRP has been utilized in the Examples unless otherwise stated.
# An increment of cytoplasmic Ca^++ in the platelets represents an activated state. Indo-1 acetomethyl ester (Indo-1) commonly has been utilized as the reagent to detect intracellular free Ca^++. Indo-1 reacts with Ca^++ and produces fluorescence which can be monitored in a dual wavelength (408/485) flow cytometer (Coulter EPIC Systems). Platelets were incubated with Indo-1 at 37° C. for 45 min. Excess Indo-1 in the medium was removed by gel-filtration method. Indo-1-loaded platelets were then activated by 6.7 μM ADP in the absence or presence of thio-CHCl-AP4 A (3.3 μM) or CHCl-AP4 A (6.7 μM). Fluorescence intensity of the platelets was monitored and plotted against platelet number. The histograms generated from the plots were analyzed. Unstimulated platelets registered fluorescence intensity (FI) between 42 and 250 with a peak at 133 (base line control).
# [2] = cited from earlier work
# [3] = test system: ADP-induced platelet aggregation; settings: cited from earlier work
# [4] = cited from earlier work; remark: listed apart in the source
# [5] = test system: ADP-induced platelet aggregation; thrombus formation; settings: in words; cited from earlier work
# [6] = test system: ADP-induced platelet aggregation; settings: Zamecnik '550 Table 3; cited from earlier work
# [7] = test system: ADP-induced platelet aggregation; test: ADP-induced platelet aggregation in platelet-rich plasma (turbidimetric method of Born, aggregometer); type: cell-based, human; settings: ADP-induced aggregation, PRP, mean of three (*) or two determinations
# Procedure: as §1
# An initial screening was performed for inhibitory effects of several agents (including, e.g., thio-CHCl-AP4 A and CHCl-AP4 A as reference agent)) on platelet aggregation induced by ADP. Platelet aggregation was measured with platelet-rich plasma (PKP) by the turbidimetric method of Born (J. Physiol. 162:67, 1962) in an aggregometer (Chrono-log, Model 530 VS). Platelet aggregation induced by 5 μM ADP in the absence or presence of 5 μM agents was examined. […] The IC50 value of the CHCl-AP4 A (reference agent) was consistent with the value reported previously (P. Zamecnik et al., Proc. Nat'l. Acad. Sci. USA 89:2370-2373 (1992)).
# [8] = test system: platelet cAMP level; test: Level of intracellular platelet cAMP (etheno-cAMP, HPLC); type: cell-based, human; settings: 10 μM agent, 37° C., 5 min; control 31.6
# Procedure: as §1
# The inhibitory effect of cAMP on platelet aggregation has been known as a counteraction of calcium ion mobilization. Accordingly, the inhibitory effects of the agents with respect to a cAMP mediated mechanism was tested. PRP was incubated with saline (control), agents (at 20 μM and 100 μM), or forskolin (10 μM) at 37° C. for 5 min. After incubation, extracts were made using Ba(OH)2 and ZnSO4. Cyclic AMP in the extracts was converted into the etheno-cAMP derivative, and the levels were estimated by HPLC using a fluorescence detector (W. Wojcik et al., J. Cyclic Nucleotide Res. 7:27-35 (1981)). The level of cAMP in an unknown extract was determined by extrapolation from a standard graph. A linear relationship between the cAMP level in the extracted samples and fluorescence detection was observed. […] However, this increase may not be a specific effect. Although adenosine contamination in the tested AP4 A agents was not detected, it is possible that either cellular adenosine nucleotide metabolic products or contaminated adenosine in the tested agents may be responsible for the elevated cAMP level.
# [9] = test system: platelet cAMP level; test: as above; type: cell-based, human; settings: forskolin 101 μM as printed, positive control, in words
# [10] = in words, cited from earlier work; for side effects / bleeding risk: clinical
compound,measurement,setting,value
CNc1ccc2oc(C[C@H]3O[C@@]4(CC[C@H]3C)O[C@H]([C@H](C)C(=O)c3ccc[nH]3)[C@H](C)C[C@H]4C)nc2c1C(=O)O [A23187],"fluorescence intensity (FI), peak","[1]; 2 μM A23187, positive control",530
"Nc1ncnc2c1ncn2[C@@H]1O[C@H](COP(=O)(O)OP(=O)(O)O)[C@@H](O)[C@H]1O [ADP, adenosine diphosphate]","fluorescence intensity (FI), peak","[1]; 6.7 μM ADP, no agent",158
"Nc1ncnc2c1ncn2[C@@H]1O[C@H](COP(=O)(O)OP(=O)(O)OP(=O)(O)OC[C@H]2O[C@@H](n3cnc4c(N)ncnc43)[C@H](O)[C@@H]2O)[C@@H](O)[C@H]1O [AP3 A, diadenosine 5', 5'""-p^1, p^3 -triphosphate]",degradation products in plasma,[2],hydrolyzed in plasma to AMP (adenosine monophosphate) and ADP (adenosine diphosphate)
same,effect on platelet aggregation,"[3]; AP3 A, in words",gradual aggregation of platelets
"Nc1ncnc2c1ncn2[C@@H]1O[C@H](COP(=O)(O)OP(=O)(O)OP(=O)(O)OP(=O)(O)OC[C@H]2O[C@@H](n3cnc4c(N)ncnc43)[C@H](O)[C@@H]2O)[C@@H](O)[C@H]1O [AP4 A, diadenosine 5', 5'""-P^1,P^4 -tetraphosphate]",AP4 A degraded in plasma,"[2]; ^32 P-labeled, normal plasma, ten minutes, 37° C., 10 min",90%
same,degradation products in plasma,[2],degraded to AMP and ATP (adenosine triphosphate)
same,half-life in rabbit blood,[4]; in vivo and ex vivo,short half-life
same,ex vivo decay compared to in vivo clearance,[4]; rabbit blood,significantly longer
same,effect on ADP-induced platelet aggregation on administration to a mammal,[5],inhibit markedly ADP-induced platelet aggregation
same,effect on thrombus formation on administration to a mammal,[5],inhibit thrombus formation
same,dispersion of aggregated platelets,[3]; even when aggregation has progressed to 60% completion,immediate dispersion of aggregated platelets
same,effect on ADP-induced platelet aggregation,"[3]; in vitro, in words",competitive inhibitor; also recorded: competitively inhibits
Nc1ncnc2c1ncn2[C@@H]1O[C@H](COP(=O)(O)OP(=O)(O)C(F)P(=O)(O)OP(=O)(O)OC[C@H]2O[C@@H](n3cnc4c(N)ncnc43)[C@H](O)[C@@H]2O)[C@@H](O)[C@H]1O (some centres unmarked) [AppCHFppA],ID10,[6],4 µM
Nc1ncnc2c1ncn2[C@H]1C[C@H](O)[C@@H](COP(=O)(O)OP(=O)(O)C(Cl)P(=O)(O)OP(=O)(O)OC[C@H]2O[C@@H](n3cnc4c(N)ncnc43)C[C@@H]2O)O1 (some centres unmarked) [CHCl-dAP4 dA],pIC50,[7]; read-out: IC50,< 4.00
C=C[C@@]1(C)CC(=O)[C@]2(O)[C@@]3(C)[C@@H](O)CCC(C)(C)[C@@H]3[C@H](O)[C@H](OC(C)=O)[C@@]2(C)O1 [Forskolin],platelet cAMP level,[8],124.4 nM
same,effect on platelet cAMP,[9],marked increase
Nc1ncnc2c1ncn2[C@H]1C[C@H](O)[C@@H](COP(O)(=S)OP(=O)(O)C(Cl)P(=O)(O)OP(O)(=S)OC[C@H]2O[C@@H](n3cnc4c(N)ncnc43)C[C@@H]2O)O1 (some centres unmarked) [Thio-CHCl-dAP4 dA],pIC50,[7],5.04
CC(=O)Oc1ccccc1C(=O)O [aspirin],clinical effectiveness,[10],useful but limited effectiveness
Clc1ccccc1CN1CCc2sccc2C1 [ticlopidine],side effects / bleeding risk,[10],substantial side effects
"ReoPro: newer drugs, such as ReoPro (7E3)",side effects / bleeding risk,[10],increased risk of major bleeding

# From patent US5681823A, “P^1, P^4 -dithio-P^2 -P^3 -monochloromethylene 5', 5'"-diadenosine P^1, P^4 -tetraphosphate as antithrombotic agent” (PRP Inc., priority 1996, dated 1997)
